Target: T1, α-synuclein fibrils (Homo sapiens, UniProt P37840)
T1 construct: GST (N, cleaved yes); made in house; host or cells: E. coli BL21
Test: Congo red binding assay of aged α-synuclein
Format: biochemical
Conditions: all tested concentrations; fibril control shifts from 490 to 508 nm
Description: CR is a dye with high affinity for amyloid fibrils. Congo red (20 μM) was prepared in PBS (pH 7.4) and filtered through a 0.45 μm filter. Samples of α-synuclein (5 μM), aged alone or with the compounds at different molar ratios, were mixed with Congo red (final concentration 5 μM), and the reaction samples were thoroughly mixed. The UV absorbance spectrum was recorded between 400 and 600 nm in a spectrophotometer (DU-800, Beckman-Coulter) using 10-mm quartz cuvettes (HellmaAnalytics-Germany). Congo red alone was used as blank.

Structure (SMILES): CC(C)=CCC[C@](C)(O[C@@H]1O[C@H](CO[C@@H]2O[C@H](CO)[C@@H](O)[C@H](O)[C@H]2O)[C@@H](O)[C@H](O)[C@H]1O)[C@H]1CC[C@]2(C)[C@@H]1[C@H](O)C[C@@H]1[C@@]3(C)CC[C@H](O[C@@H]4O[C@H](CO)[C@@H](O)[C@H](O)[C@H]4O[C@@H]4O[C@H](CO)[C@@H](O)[C@H](O)[C@H]4O)C(C)(C)[C@@H]3CC[C@]12C [Gn Rb1, ginsenoside Rb1]
- absorption maximum of Congo red bound to α-synuclein samples: ≤ 495 nm

— patent US10488417B2, “Compounds for use as imaging agents” (United Arab Emirates University, priority 2014, dated 2019)
